Measured values taken from ChEMBL document CHEMBL5385891, “Design and discovery of novel dipeptide boronic acid ester proteasome inhibitors, an oral slowly-released prodrug for the treatment of multiple myeloma” (Eur J Med Chem, 2023).

How the values were obtained:
[1] = biological target: 20S proteasome; assay: Inhibition of human 20S proteasome chymotrypsin-like activity using Suc-Leu-Leu-Val-Tyr-AMC as fluorogenic peptide pre-incubated for 10 mins with compound followed by substrate addition for 60 mins by spectrofluorimetric analysis; format: protein-complex assay
[2] = test system: RPMI-8226; assay: Cytotoxicity against human RPMI-8226 cells assessed as inhibition of cell proliferation incubated for 72 hrs by Cell Titer-Glo luminescence assay; format: functional, cell-based; details: RPMI-8226, 72 h
[3] = Stability of the compound in stimulated […] fluid at pH 1.2 measured after 1 min; format: ADME; details: simulated gi fluid, pH 1.2, 1 min
[4] = Stability of the compound in stimulated […] fluid at pH 1.2 measured after 2 hrs; format: ADME; details: simulated gi fluid, pH 1.2, 2 h
[5] = Stability of the compound in stimulated […] fluid at pH 1.2 measured after 4 hrs; format: ADME; details: simulated gi fluid, pH 1.2, 4 h
[6] = Stability of the compound in stimulated […] fluid at pH 1.2 measured after 8 hrs; format: ADME; details: simulated gi fluid, pH 1.2, 8 h
[7] = Stability of the compound in stimulated […] fluid at pH 1.2 measured after 12 hrs; format: ADME; details: simulated gi fluid, pH 1.2, 12 h
[8] = Stability of the compound in stimulated […] fluid at pH 6.8 measured after 1 min; format: ADME; details: simulated intestinal fluid, read-out: Stability
[9] = Stability of the compound in stimulated […] fluid at pH 6.8 measured after 2 hrs; format: ADME; details: simulated intestinal fluid, read-out: Stability
[10] = Stability of the compound in stimulated […] fluid at pH 6.8 measured after 4 hrs; format: ADME; details: simulated intestinal fluid, read-out: Stability
[11] = Stability of the compound in stimulated […] fluid at pH 6.8 measured after 8 hrs; format: ADME; details: simulated intestinal fluid, read-out: Stability
[12] = Stability of the compound in stimulated […] fluid at pH 6.8 measured after 12 hrs; format: ADME; details: simulated intestinal fluid, read-out: Stability
[13] = Half life in human liver microsomes at 1 uM incubated for 2 to 60 mins in presence of NADPH by LC-MS/MS analysis; format: ADME, Microsome; details: time 2-60 min
[14] = Half life in mouse liver microsomes at 1 uM incubated for 2 to 60 mins in presence of NADPH by LC-MS/MS analysis; format: ADME, Microsome; details: time 2-60 min
[15] = Half life in rat liver microsomes at 1 uM incubated for 2 to 60 mins in presence of NADPH by LC-MS/MS analysis; format: ADME, Microsome; details: time 2-60 min
[16] = Half life in dog liver microsomes at 1 uM incubated for 2 to 60 mins in presence of NADPH by LC-MS/MS analysis; format: ADME, Canis lupus familiaris, Microsome; details: time 2-60 min
[17] = Half life in monkey liver microsomes at 1 uM incubated for 2 to 60 mins in presence of NADPH by LC-MS/MS analysis; format: ADME, Macaca mulatta, Microsome; details: rhesus monkey, time 2-60 min
[18] = Intrinsic clearance in human liver microsomes at 1 uM incubated for 2 to 60 mins in presence of NADPH by LC-MS/MS analysis; format: ADME, Microsome; details: time 2-60 min, read-out: CLH
[19] = Intrinsic clearance in mouse liver microsomes at 1 uM incubated for 2 to 60 mins in presence of NADPH by LC-MS/MS analysis; format: ADME, Microsome; details: time 2-60 min, read-out: CLH
[20] = Intrinsic clearance in rat liver microsomes at 1 uM incubated for 2 to 60 mins in presence of NADPH by LC-MS/MS analysis; format: ADME, Microsome; details: time 2-60 min, read-out: CLH
[21] = Intrinsic clearance in dog liver microsomes at 1 uM incubated for 2 to 60 mins in presence of NADPH by LC-MS/MS analysis; format: ADME, Canis lupus familiaris, Microsome; details: time 2-60 min, read-out: CLH
[22] = Intrinsic clearance in monkey liver microsomes at 1 uM incubated for 2 to 60 mins in presence of NADPH by LC-MS/MS analysis; format: ADME, Macaca mulatta, Microsome; details: rhesus monkey, time 2-60 min, read-out: CLH
[23] = Half life in Sprague-Dawley rat at 0.4 mg/kg,iv measured upto 24 hrs by LC-MS/MS analysis; format: ADME, organism-based; details: in vivo
[24] = AUC (0-t) in Sprague-Dawley rat at 0.4 mg/kg,iv measured upto 24 hrs by LC-MS/MS analysis; format: ADME, organism-based; design: time < 24 hrs, dose 0.4 mg/kg, route iv; details: in vivo
[25] = Cmax in Sprague-Dawley rat at 1.2 mg/kg,IG measured upto 24 hrs by LC-MS/MS analysis; format: ADME, organism-based; design: time < 24 hrs, dose 1.2 mg/kg, route ig; details: in vivo, po
[26] = Tmax in Sprague-Dawley rat at 1.2 mg/kg,IG measured upto 24 hrs by LC-MS/MS analysis; format: ADME, organism-based; details: in vivo, po
[27] = Half life in Sprague-Dawley rat at 1.2 mg/kg,IG measured upto 24 hrs by LC-MS/MS analysis; format: ADME, organism-based; details: in vivo, po
[28] = AUC(0-t) in Sprague-Dawley rat at 1.2 mg/kg,IG measured upto 24 hrs by LC-MS/MS analysis; format: ADME, organism-based; design: dose 1.2 mg/kg, time < 24 hrs, route ig; details: in vivo, po
[29] = Oral bioavailability in Sprague-Dawley rat at 1.2 mg/kg measured upto 24 hrs by LC-MS/MS analysis; format: ADME, organism-based; details: in vivo
[30] = biological target: Voltage-gated inwardly rectifying potassium channel KCNH2 (Homo sapiens, UniProt Q12809); assay: Inhibition of human ERG expressed in HEK293 cells; format: toxicity, cell-based
Sequence of Voltage-gated inwardly rectifying potassium channel KCNH2 (Q12809 whole entry): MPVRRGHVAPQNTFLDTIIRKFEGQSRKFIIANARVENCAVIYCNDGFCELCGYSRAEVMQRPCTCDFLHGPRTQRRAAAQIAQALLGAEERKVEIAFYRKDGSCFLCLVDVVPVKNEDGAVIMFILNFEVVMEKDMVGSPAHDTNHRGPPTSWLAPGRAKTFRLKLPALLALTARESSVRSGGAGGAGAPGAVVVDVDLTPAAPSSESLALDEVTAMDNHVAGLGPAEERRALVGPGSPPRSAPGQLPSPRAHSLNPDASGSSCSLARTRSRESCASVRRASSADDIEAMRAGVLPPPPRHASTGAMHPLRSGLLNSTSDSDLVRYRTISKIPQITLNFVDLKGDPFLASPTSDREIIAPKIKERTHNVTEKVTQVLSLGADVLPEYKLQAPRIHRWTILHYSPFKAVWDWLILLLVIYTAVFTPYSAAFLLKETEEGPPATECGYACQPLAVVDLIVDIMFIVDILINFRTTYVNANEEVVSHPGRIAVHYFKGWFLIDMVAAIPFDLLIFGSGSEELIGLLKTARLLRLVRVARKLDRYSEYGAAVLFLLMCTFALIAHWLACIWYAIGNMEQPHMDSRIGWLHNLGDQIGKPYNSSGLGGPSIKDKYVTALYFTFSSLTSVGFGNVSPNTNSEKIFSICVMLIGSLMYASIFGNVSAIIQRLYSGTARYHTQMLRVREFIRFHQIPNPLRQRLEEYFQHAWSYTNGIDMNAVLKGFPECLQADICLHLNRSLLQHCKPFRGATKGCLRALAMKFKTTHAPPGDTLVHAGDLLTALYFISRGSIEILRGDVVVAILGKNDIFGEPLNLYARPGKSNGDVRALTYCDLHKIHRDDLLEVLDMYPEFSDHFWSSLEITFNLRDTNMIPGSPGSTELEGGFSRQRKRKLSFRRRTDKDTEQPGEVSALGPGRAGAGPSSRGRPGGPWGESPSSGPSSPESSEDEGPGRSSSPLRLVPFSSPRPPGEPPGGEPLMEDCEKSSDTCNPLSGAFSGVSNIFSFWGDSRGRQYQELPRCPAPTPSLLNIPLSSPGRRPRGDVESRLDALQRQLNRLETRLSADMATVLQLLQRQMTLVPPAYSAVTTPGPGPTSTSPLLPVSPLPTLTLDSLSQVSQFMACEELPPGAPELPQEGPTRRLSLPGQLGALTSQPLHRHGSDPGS

[31] = Toxicity in Balb/c mouse xenografted with human RPMI-8226 cells assessed as body weight loss at 6 mg/kg,po administrated biweekly for 21 days; format: organism-based; details: in vivo, 504 h, time 21 day
[32] = Toxicity in Balb/c mouse xenografted with human RPMI-8226 cells assessed as body weight loss at 10 mg/kg,po administrated biweekly for 21 days; format: organism-based; details: in vivo, 504 h, time 21 day
[33] = test system: RPMI-8226; assay: Antitumor activity against human RPMI-8226 cells xenografted in Balb/c mouse assessed as tumor growth inhibition at po administration biweekly for 21 days; format: functional, organism-based; details: time 21.0 day

SMILES | IC50 [1] | IC50 [2] | Stability [3] | Stability [4] | Stability [5] | Stability [6] | Stability [7] | remaining at 1 min [8] | remaining at 2 h [9] | remaining at 4 h [10] | remaining at 8 h [11] | remaining at 12 h [12] | half-life at 1 µM [13] | half-life at 1 µM [14] | half-life at 1 µM [15] | half-life at 1 µM [16] | half-life at 1 µM [17] | microsomal CLint at 1 µM [18] | microsomal CLint at 1 µM [19] | microsomal CLint at 1 µM [20] | other results
CC(C)C[C@H](NC(=O)C(CC1CC1)NC(=O)c1cc(C(F)(F)F)ccc1C(F)(F)F)B1OC2C3OC(CC3C(=O)O)C2(C)O1 (stereo partly specified) | 2.2 nM | 5.6 nM | 6.44% | 59.73% | 58.25% | 58.68% | 59.68% | 2.27% | 3.55% | 3.98% | 5.24% | 6.77% | 28.3 min | 28.3 min | 25.2 min | 72.9 min | 8.8 min | 49 µL/min/mg | 49 µL/min/mg | 55 µL/min/mg | microsomal CLint at 1 µM [21]: 19 µL/min/mg; microsomal CLint at 1 µM [22]: 158 µL/min/mg; half-life [23]: 1450 min; AUC(0-t) at 24 h [24]: 2270 ng·h/mL; Cmax [25]: 174 ng/mL; Tmax [26]: 49.8 min; half-life [27]: 1800 min; AUC(0-t) at 24 h [28]: 2680 ng·h/mL; bioavailability [29]: 34%; IC50 [30]: > 30000 nM; Activity [31]: Non-Toxic; Activity [32]: Non-Toxic; Activity [33]: Dose-Dependent Effect
CC(C)C[C@H](NC(=O)C(NC(=O)c1cc(C(F)(F)F)ccc1C(F)(F)F)C1CC1)B1OC2C3OC(CC3C(=O)O)C2(C)O1 (stereo partly specified) | 2.7 nM | 2.9 nM | 5.35% | 56.83% | 57.32% | 58.67% | 58.73% | 2.35% | 2.82% | 2.68% | 3.93% | 5.76% | 66.6 min | 36.7 min | 24.9 min | 84.5 min | 38.9 min | 20.8 µL/min/mg | 37.8 µL/min/mg | 55.6 µL/min/mg | microsomal CLint at 1 µM [21]: 16.4 µL/min/mg; microsomal CLint at 1 µM [22]: 35.6 µL/min/mg; half-life [23]: 1450 min; AUC(0-t) at 24 h [24]: 323 ng·h/mL; Cmax [25]: 46.5 ng/mL; Tmax [26]: 10.2 min; half-life [27]: 718 min; AUC(0-t) at 24 h [28]: 126 ng·h/mL; bioavailability [29]: 9.8%
CC(C)C[C@H](NC(=O)CNC(=O)c1cc(Cl)ccc1Cl)B(O)O [IXAZOMIB] |  | 7.4 nM | 100% | 100% | 100% | 100% | 100% | 12.6% | 100% | 100% | 100% | 100% |  |  |  |  |  |  |  |  | Activity [31]: Non-Toxic; Activity [32]: Non-Toxic; Activity [33]: Dose-Dependent Effect
